Data from ChEMBL document CHEMBL1201862, “PubChem BioAssay data set” (2004).
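Results reflect a 48-hour exposure of cells in 96-well plates to compound at five concentrations. GI50: concentration for 50% inhibition of growth.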 Calls of active or inactive are those of the source. Rule as the data show it: active = GI50 up to about 1.1 µM and inactive = higher.

How the values were obtained:
Test in all cases: NCI tumour cell line growth inhibition, 48 h
KM12 = system: KM12
RXF 393 = system: RXF 393
NCI-H460 = system: NCI-H460
MCF7 = system: MCF7
EKVX = system: EKVX
IGROV-1 = system: IGROV-1
786-0 = system: 786-0
SK-OV-3 = system: SK-OV-3
UACC-62 = system: UACC-62
SF-268 = system: SF-268
PC-3 = system: PC-3
HCC 2998 = system: HCC 2998
ACHN = system: ACHN
OVCAR-5 = system: OVCAR-5
SK-MEL-28 = system: SK-MEL-28
HOP-62 = system: HOP-62
MDA-N = system: MDA-N
SNB-19 = system: SNB-19
M14 = system: M14
NCI/ADR-RES = system: NCI/ADR-RES
SF-295 = system: SF-295
OVCAR-4 = system: OVCAR-4
HCT-116 = system: HCT-116
T47D = system: T47D
COLO 205 = system: COLO 205
SN12C = system: SN12C
NCI-H522 = system: NCI-H522
A498 = system: A498
HL-60 = system: HL-60
BT-549 = system: BT-549
DU-145 = system: DU-145
SK-MEL-5 = system: SK-MEL-5
Hs-578T = system: Hs-578T
U-251 = system: U-251
UACC-257 = system: UACC-257
SW-620 = system: SW-620
TK-10 = system: TK-10
K562 = system: K562
NCI-H23 = system: NCI-H23
Malme-3M = system: Malme-3M
A549 = system: A549
SK-MEL-2 = system: SK-MEL-2
CCRF-CEM = system: CCRF-CEM
MOLT-4 = system: MOLT-4
LOX IMVI = system: LOX IMVI
NCI-H226 = system: NCI-H226
UO-31 = system: UO-31
SR = system: SR
CAKI-1 = system: CAKI-1
HOP-92 = system: HOP-92
HCT-15 = system: HCT-15
MDA-MB-231 = system: MDA-MB-231
RPMI-8226 = system: RPMI-8226
HT-29 = system: HT-29
OVCAR-8 = system: OVCAR-8
MDA-MB-435 = system: MDA-MB-435
OVCAR-3 = system: OVCAR-3
SNB-75 = system: SNB-75
SF-539 = system: SF-539

CCOC(=O)/C=C(/C)Nc1nc2c(c(C(=O)OC)c1C#N)CCCC2
GI50 (KM12): > 100 µM (inactive)
GI50 (RXF 393): > 100 µM (inactive)
GI50 (NCI-H460): > 100 µM (inactive)
GI50 (MCF7): > 100 µM (inactive)
GI50 (EKVX): 86.1 µM (inactive)
GI50 (IGROV-1): > 100 µM (inactive)
GI50 (786-0): > 100 µM (inactive)
GI50 (SK-OV-3): > 100 µM (inactive)
GI50 (UACC-62): > 100 µM (inactive)
GI50 (SF-268): > 100 µM (inactive)
GI50 (PC-3): > 100 µM (inactive)
GI50 (HCC 2998): > 100 µM (inactive)
GI50 (ACHN): > 100 µM (inactive)
GI50 (OVCAR-5): > 100 µM (inactive)
GI50 (SK-MEL-28): > 100 µM (inactive)
GI50 (HOP-62): > 100 µM (inactive)
GI50 (MDA-N): > 100 µM (inactive)
GI50 (SNB-19): > 100 µM (inactive)
GI50 (M14): > 100 µM (inactive)
GI50 (NCI/ADR-RES): > 100 µM (inactive)
GI50 (SF-295): > 100 µM (inactive)
GI50 (OVCAR-4): 44.7 µM (inactive)
GI50 (HCT-116): > 100 µM (inactive)
GI50 (T47D): > 100 µM (inactive)
GI50 (COLO 205): > 100 µM (inactive)
GI50 (SN12C): > 100 µM (inactive)
GI50 (NCI-H522): > 100 µM (inactive)
GI50 (A498): > 100 µM (inactive)
GI50 (HL-60): 69.3 µM (inactive)
GI50 (BT-549): > 100 µM (inactive)
GI50 (DU-145): > 100 µM (inactive)
GI50 (SK-MEL-5): > 100 µM (inactive)
GI50 (Hs-578T): > 100 µM (inactive)
GI50 (U-251): > 100 µM (inactive)
GI50 (UACC-257): > 100 µM (inactive)
GI50 (SW-620): > 100 µM (inactive)
GI50 (TK-10): > 100 µM (inactive)
GI50 (K562): > 100 µM (inactive)
GI50 (NCI-H23): > 100 µM (inactive)
GI50 (Malme-3M): > 100 µM (inactive)
GI50 (A549): > 100 µM (inactive)
GI50 (SK-MEL-2): > 100 µM (inactive)
GI50 (CCRF-CEM): > 100 µM (inactive)
GI50 (MOLT-4): 63 µM (inactive)
GI50 (LOX IMVI): > 100 µM (inactive)
GI50 (NCI-H226): > 100 µM (inactive)
GI50 (UO-31): > 100 µM (inactive)
GI50 (SR): > 100 µM (inactive)
GI50 (CAKI-1): > 100 µM (inactive)
GI50 (HOP-92): > 100 µM (inactive)
GI50 (HCT-15): > 100 µM
GI50 (MDA-MB-231): > 100 µM (inactive)
GI50 (RPMI-8226): > 100 µM (inactive)
GI50 (HT-29): > 100 µM (inactive)
GI50 (OVCAR-8): > 100 µM (inactive)
GI50 (MDA-MB-435): > 100 µM (inactive)

Cc1cccc(/N=N/c2c(C)nn(C(=O)CC(=O)Nc3ccc(Cl)cc3)c2C)c1
GI50 (KM12): > 100 µM (inactive)
GI50 (RXF 393): 48.1 µM (inactive)
GI50 (NCI-H460): 85.3 µM (inactive)
GI50 (MCF7): > 100 µM (inactive)
GI50 (EKVX): 13.4 µM (inactive)
GI50 (786-0): 82 µM (inactive)
GI50 (SK-OV-3): 65.6 µM (inactive)
GI50 (UACC-62): > 100 µM (inactive)
GI50 (SF-268): 55.2 µM (inactive)
GI50 (PC-3): 69 µM (inactive)
GI50 (HCC 2998): > 100 µM (inactive)
GI50 (ACHN): 60.5 µM (inactive)
GI50 (OVCAR-5): 45.6 µM (inactive)
GI50 (SK-MEL-28): > 100 µM (inactive)
GI50 (HOP-62): 37.1 µM (inactive)
GI50 (MDA-N): 83.8 µM (inactive)
GI50 (SNB-19): 80.5 µM (inactive)
GI50 (M14): 48.3 µM (inactive)
GI50 (NCI/ADR-RES): > 100 µM (inactive)
GI50 (SF-295): > 100 µM (inactive)
GI50 (OVCAR-4): > 100 µM (inactive)
GI50 (HCT-116): 67.1 µM (inactive)
GI50 (T47D): 64.3 µM (inactive)
GI50 (COLO 205): > 100 µM (inactive)
GI50 (OVCAR-3): 82.4 µM (inactive)
GI50 (SN12C): > 100 µM (inactive)
GI50 (NCI-H522): 53.3 µM (inactive)
GI50 (A498): 43.8 µM (inactive)
GI50 (HL-60): 36 µM (inactive)
GI50 (BT-549): > 100 µM (inactive)
GI50 (SNB-75): 9.51 µM (inactive)
GI50 (DU-145): > 100 µM (inactive)
GI50 (SK-MEL-5): > 100 µM (inactive)
GI50 (Hs-578T): 23.8 µM (inactive)
GI50 (U-251): 61.5 µM (inactive)
GI50 (UACC-257): > 100 µM (inactive)
GI50 (SW-620): > 100 µM (inactive)
GI50 (TK-10): > 100 µM (inactive)
GI50 (NCI-H23): > 100 µM (inactive)
GI50 (A549): > 100 µM (inactive)
GI50 (SK-MEL-2): 67.5 µM (inactive)
GI50 (CCRF-CEM): 32.4 µM (inactive)
GI50 (MOLT-4): 36.6 µM (inactive)
GI50 (LOX IMVI): 95.5 µM (inactive)
GI50 (SF-539): > 100 µM (inactive)
GI50 (NCI-H226): 20 µM (inactive)
GI50 (UO-31): > 100 µM (inactive)
GI50 (SR): 20.8 µM (inactive)
GI50 (CAKI-1): > 100 µM (inactive)
GI50 (HOP-92): 21 µM (inactive)
GI50 (HCT-15): 47.8 µM
GI50 (MDA-MB-231): 20.7 µM (inactive)
GI50 (RPMI-8226): > 100 µM (inactive)
GI50 (HT-29): > 100 µM (inactive)
GI50 (OVCAR-8): > 100 µM (inactive)
GI50 (MDA-MB-435): > 100 µM (inactive)

O=C1CC(c2cccc([N+](=O)[O-])c2)C2(C(=O)NC(=S)NC2=O)C(c2cccc([N+](=O)[O-])c2)C1 (stereo not given)
GI50 (KM12): 26.6 µM (inactive)
GI50 (NCI-H460): 35.6 µM (inactive)
GI50 (MCF7): 26.8 µM (inactive)
GI50 (EKVX): 20.4 µM (inactive)
GI50 (IGROV-1): 31.3 µM (inactive)
GI50 (786-0): 34.8 µM (inactive)
GI50 (SK-OV-3): 32.7 µM (inactive)
GI50 (UACC-62): 23.2 µM (inactive)
GI50 (SF-268): 15.9 µM (inactive)
GI50 (PC-3): 51.6 µM (inactive)
GI50 (HCC 2998): 20.2 µM (inactive)
GI50 (ACHN): 72.1 µM (inactive)
GI50 (OVCAR-5): 39.9 µM (inactive)
GI50 (SK-MEL-28): 52.8 µM (inactive)
GI50 (HOP-62): 30.3 µM (inactive)
GI50 (MDA-N): 43 µM (inactive)
GI50 (SNB-19): 21.8 µM (inactive)
GI50 (M14): 21.9 µM (inactive)
GI50 (NCI/ADR-RES): > 100 µM (inactive)
GI50 (SF-295): 34 µM (inactive)
GI50 (OVCAR-4): 37.4 µM (inactive)
GI50 (HCT-116): 18.7 µM (inactive)
GI50 (T47D): 81.3 µM (inactive)
GI50 (COLO 205): 24.4 µM (inactive)
GI50 (OVCAR-3): 35.2 µM (inactive)
GI50 (SN12C): 19.9 µM (inactive)
GI50 (NCI-H522): 30 µM (inactive)
GI50 (A498): > 100 µM (inactive)
GI50 (HL-60): 40.3 µM (inactive)
GI50 (BT-549): 26.2 µM (inactive)
GI50 (SNB-75): 43.4 µM (inactive)
GI50 (DU-145): 34.1 µM (inactive)
GI50 (SK-MEL-5): 82.2 µM (inactive)
GI50 (Hs-578T): 22.8 µM (inactive)
GI50 (U-251): 26.2 µM (inactive)
GI50 (UACC-257): 89.7 µM (inactive)
GI50 (SW-620): 50.7 µM (inactive)
GI50 (TK-10): 13.9 µM (inactive)
GI50 (K562): 52 µM (inactive)
GI50 (NCI-H23): 29.2 µM (inactive)
GI50 (Malme-3M): 11.6 µM (inactive)
GI50 (A549): 31 µM (inactive)
GI50 (SK-MEL-2): 35.9 µM (inactive)
GI50 (CCRF-CEM): 27.6 µM (inactive)
GI50 (MOLT-4): 66.4 µM (inactive)
GI50 (LOX IMVI): 16.5 µM (inactive)
GI50 (SF-539): 40.6 µM (inactive)
GI50 (NCI-H226): 21 µM (inactive)
GI50 (UO-31): 47.2 µM (inactive)
GI50 (SR): 49.4 µM (inactive)
GI50 (CAKI-1): 12.9 µM (inactive)
GI50 (HOP-92): 28.2 µM (inactive)
GI50 (HCT-15): 25.5 µM
GI50 (MDA-MB-231): 16.6 µM (inactive)
GI50 (RPMI-8226): 59.7 µM (inactive)
GI50 (HT-29): 40.9 µM (inactive)
GI50 (OVCAR-8): 21.2 µM (inactive)
GI50 (MDA-MB-435): 23.5 µM (inactive)
